Data published in patent US20160374911A1, “PLANT EXTRACT COMPOSITION FOR SKIN WHITENING AND REDUCING MELANIN AS WELL AS APPLICATION THEREOF” (CALIWAY BIOPHARMACEUTICALS CO., LTD., priority 2015, published 2016).

Target: T1, tyrosinase activity in mouse melanoma B16-F10 cells (Mus musculus, UniProt P11344)
T1 construct: Mouse melanoma B16-F10 cells were used; endogenous in cells; host or cells: mouse melanoma B16-F10 cells
T1 sequence (P11344 19-533): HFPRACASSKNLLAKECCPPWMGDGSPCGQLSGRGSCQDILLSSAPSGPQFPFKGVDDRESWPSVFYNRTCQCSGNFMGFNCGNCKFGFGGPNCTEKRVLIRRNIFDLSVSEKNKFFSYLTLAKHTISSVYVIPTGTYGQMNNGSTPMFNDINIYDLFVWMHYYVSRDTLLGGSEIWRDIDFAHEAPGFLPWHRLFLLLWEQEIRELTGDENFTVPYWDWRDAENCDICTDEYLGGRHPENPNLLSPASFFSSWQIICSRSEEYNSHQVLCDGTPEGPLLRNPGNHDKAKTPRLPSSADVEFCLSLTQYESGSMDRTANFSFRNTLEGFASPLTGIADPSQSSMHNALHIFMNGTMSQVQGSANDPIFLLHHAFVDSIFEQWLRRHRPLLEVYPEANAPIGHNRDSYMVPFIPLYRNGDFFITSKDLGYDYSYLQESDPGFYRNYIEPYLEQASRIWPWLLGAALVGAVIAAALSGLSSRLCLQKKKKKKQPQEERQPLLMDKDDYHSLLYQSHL
Assay: Inhibition of tyrosinase (melanogenesis induction firstly, then administration), L-DOPA conversion
Assay type: cell-based
Conditions: 250 ppm arbutin, 6 ppm resveratrol, 8 ppm curcumin, 8 ppm compositions; 48 hours after α-MSH; absorbance 405 nm within 60 minutes

OC[C@H]1O[C@@H](Oc2ccc(O)cc2)[C@H](O)[C@@H](O)[C@@H]1O [arbutin]
activity of tyrosinase compared with control group (in words): reduced the activity of tyrosinase

COc1cc(/C=C/C(=O)CC(=O)/C=C/c2ccc(O)c(OC)c2)ccc1O [curcumin]
activity of tyrosinase compared with control group (in words): reduced the activity of tyrosinase
